Experimental data taken from patent US11465994B2, “MGluR7 agonist compounds for treating mGluR7-regulated diseases, disorders, or conditions” (Takeda Pharmaceutical Company Limited, priority 2016, dated 2022).

Target: mGluR7 (Homo sapiens, UniProt Q14831)
Assay: cAMP CRE-luciferase reporter gene assay (Steady Glo) in CHO-CRE-luc cells stably expressing human mGluR7
Type: cell-based
Set-up: expressed in transfected cells
Conditions: reduction of forskolin stimulated cAMP (luminescence); CHO CRE-luc human mGluR7; read-out: EC50
Description: Compound activities were determined in CHO-CRE-luc cells stably expressing hu/mo mGluR7, using a cAMP reporter gene assay (Steady Glo, Promega). Selectivity was assessed in stable CHO-mGluR4 cells (DiscoverX) and CHO-mGluR8 transients using an HTRF cAMP assay (Cisbio).
The ability of the test compounds to activate mGluR7 was determined by their ability to reduce forskolin stimulated cAMP production. Compounds were assessed in a CRE-directed luciferase reporter gene assay, using a stable CHO cell line expressing the CRE-luc reporter and human mGluR7 genes. In this cell line, production of cAMP stimulated the transcription of the luciferase gene and luciferase activity was then measured in a luminescent enzyme assay (Steady Glo assay; Promega E2550). Activation of mGluR7 decreased the forskolin stimulated luminescence signal.
The day prior to the assay, compounds were serially diluted in DMSO (100× final assay concentration (FAC)), in 384-well plates which were then stored in the dark at room temperature (RT) until use. Cells were seeded at 12.5 k/well in white, clear bottom 384-well plates (Corning 3707) and left for one hour at RT followed by an overnight incubation (37° C.). The following day, the DMSO compound plate was diluted 1:20 (5×FAC) in Opti-MEM I (Life Technologies 11058021). The growth media was removed from the cell plate and replaced with 15 μl Opti-MEM I, followed by a 5 μl addition from the 5× compound plate and a fifteen minute incubation (37° C.). Forskolin (Sigma F3917) was then added to the wells (5 μl of 2.5 μM) and the plate was incubated for five hours (37° C.). During this incubation, the Steady Glo Substrate reagent was warmed to 37° C. Aliquots (11 ml; stored at −20° C.) of this reagent were prepared by dissolving the contents of 1 vial of lyophilised substrate in 100 ml Steady-Glo buffer. A 25 μl addition of the substrate was made to all wells and the plate was incubated for thirty minutes at RT, on a plate shaker (300 rpm; in the dark). Luminescence was then measured using the EnVision Multilabel Reader (Perkin Elmer).
Compound activity was examined using a 10-point, half log concentration-response range and each concentration was tested in duplicate wells. Luminescence values were normalised to ‘maximum’ (forskolin alone) and ‘minimum’ (forskolin in the presence of tool mGluR7 agonist) controls.

mGluR7, sequence (Q14831 35-915): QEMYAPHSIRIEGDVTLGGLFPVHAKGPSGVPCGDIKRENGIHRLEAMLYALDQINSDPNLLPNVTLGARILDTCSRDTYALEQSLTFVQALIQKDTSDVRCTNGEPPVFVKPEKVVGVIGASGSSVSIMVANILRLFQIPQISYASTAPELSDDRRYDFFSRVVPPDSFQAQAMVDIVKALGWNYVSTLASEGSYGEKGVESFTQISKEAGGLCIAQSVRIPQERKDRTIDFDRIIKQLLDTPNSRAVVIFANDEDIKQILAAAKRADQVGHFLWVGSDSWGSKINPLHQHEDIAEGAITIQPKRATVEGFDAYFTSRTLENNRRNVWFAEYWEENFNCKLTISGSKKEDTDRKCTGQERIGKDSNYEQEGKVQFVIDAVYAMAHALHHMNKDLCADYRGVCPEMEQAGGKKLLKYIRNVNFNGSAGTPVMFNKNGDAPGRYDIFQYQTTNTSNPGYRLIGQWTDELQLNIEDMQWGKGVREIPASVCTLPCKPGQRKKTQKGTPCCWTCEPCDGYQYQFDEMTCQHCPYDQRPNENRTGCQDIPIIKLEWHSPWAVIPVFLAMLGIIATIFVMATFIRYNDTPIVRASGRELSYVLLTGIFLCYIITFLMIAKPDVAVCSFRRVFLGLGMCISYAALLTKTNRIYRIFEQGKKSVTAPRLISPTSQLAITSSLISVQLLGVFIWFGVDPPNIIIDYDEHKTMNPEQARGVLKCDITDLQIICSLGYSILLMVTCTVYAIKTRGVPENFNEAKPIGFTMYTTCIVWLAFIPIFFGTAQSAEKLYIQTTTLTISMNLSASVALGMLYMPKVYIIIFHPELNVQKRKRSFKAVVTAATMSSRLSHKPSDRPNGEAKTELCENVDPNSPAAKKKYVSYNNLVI

| SMILES | EC50 [nM] |
| --- | --- |
| CO[C@@H]1c2ccccc2OC[C@H]1NC(=O)C(c1ccc(F)cc1)N1CC(OC(F)(F)F)C1 (relative stereo) [Example 24, 2-(4-fluorophenyl)-N-((trans)-4-methoxy-3,4-dihydro-2H-1-benzopyran-3-yl)-2-[3-(trifluoromethoxy)azetidin-1-yl]acetamide] | 20 |
| CO[C@@H]1c2ccccc2OC[C@H]1NC(=O)C(c1ccc(F)cc1F)N1CC(OC(F)(F)F)C1 (relative stereo) [Example 25, 2-(2,4-difluorophenyl)-N-((trans)-4-methoxy-3,4-dihydro-2H-1-benzopyran-3-yl)-2-[3-(trifluoromethoxy)azetidin-1-yl]acetamide] | 27 |
| CO[C@@H]1c2ccccc2OC[C@H]1NC(=O)C1c2ccccc2CC(=O)N1CC1CCOCC1 (relative stereo) [Example 28, N-((trans)-4-methoxy-3,4-dihydro-2H-1-benzopyran-3-yl)-2-[(oxan-4-yl)methyl]-3-oxo-1,2,3,4-tetrahydroisoquinoline-1-carboxamide] | 14 |
| CO[C@@H]1c2ccccc2OC[C@H]1NC(=O)C1c2ccccc2CC(=O)N1Cc1ccccn1 (relative stereo) [Example 29, N-((trans)-4-methoxy-3,4-dihydro-2H-1-benzopyran-3-yl)-3-oxo-2-[(pyridin-2-yl)methyl]-1,2,3,4-tetrahydroisoquinoline-1-carboxamide] | 8 |
| CO[C@@H]1c2ccccc2OC[C@H]1NC(=O)C(OCC1CC1)c1ccc(F)cc1 (relative stereo) [Example 30, 2-(cyclopropylmethoxy)-2-(4-fluorophenyl)-N-((trans)-4-methoxy-3,4-dihydro-2H-1-benzopyran-3-yl)acetamide] | 11 |
| CO[C@@H]1c2ccccc2OC[C@H]1NC(=O)C(Oc1ccnc(C)n1)c1ccc(F)cc1F (relative stereo) [Example 31, 2-(2,4-difluorophenyl)-N-((trans)-4-methoxy-3,4-dihydro-2H-1-benzopyran-3-yl)-2-[(2-methylpyrimidin-4-yl)oxy]acetamide] | 54 |
| CO[C@@H]1c2ccccc2OC[C@H]1NC(=O)C(c1ccc(F)cc1F)n1ccccc1=O (relative stereo) [Example 32, 2-(2,4-difluorophenyl)-N-((trans)-4-methoxy-3,4-dihydro-2H-1-benzopyran-3-yl)-2-(2-oxo-1,2-dihydropyridin-1-yl)acetamide] | 300 |
| C[C@H](C(=O)NC1COc2ccccc2C1O)c1ccccc1 (single isomer, unassigned) [Example 1] | 874 |
| C[C@H](C(=O)NC1COc2ccccc2C1O)c1ccccc1 (single isomer, unassigned) [Example 2] | 96 |
| C[C@H](C(=O)NC1COc2ccccc2C1O)c1ccccc1 (single isomer, unassigned) [Example 5] | 68 |
| C[C@H](C(=O)NC1COc2ccccc2C1O)c1ccccc1 (single isomer, unassigned) [Example 6] | 101 |
| C[C@H](C(=O)NC1COc2ccccc2C1(C)O)c1ccccc1 (single isomer, unassigned) [Example 7] | 911 |
| C[C@H](C(=O)NC1COc2ccccc2C1(C)O)c1ccccc1 (single isomer, unassigned) [Example 8] | 274 |
| CNC1c2ccccc2OCC1NC(=O)[C@@H](C)c1ccccc1 (single isomer, unassigned) [Example 9] | 4990 |
| CNC1c2ccccc2OCC1NC(=O)[C@@H](C)c1ccccc1 (single isomer, unassigned) [Example 10] | 1650 |
| COC1c2ccccc2OCC1NC(=O)[C@@H](C)c1ccccc1 (single isomer, unassigned) [Example 11] | 55 |
| C[C@H](C(=O)NC1COc2ccccc2C1S(C)(=O)=O)c1ccccc1 (single isomer, unassigned) [Example 12] | 7 |
| C[C@H](C(=O)NC1COc2ccccc2C1S(C)(=O)=O)c1ccccc1 (single isomer, unassigned) [Example 13] | 26 |
